From patent US20090291968A1, “SUBSTITUTED INDAZOLE DERIVATIVES, THEIR MANUFACTURE AND USE AS PHARMACEUTICAL AGENTS” (priority 2006, published 2009)

Tests used:
HCT 116 cells = assay: CellTiter-Glo assay in HCT 116 cells (cell viability); assay type: cell-based; conditions: 120 h; HCT 116 human colon carcinoma cells, 5 days incubation, CellTiter-Glo luminescence
Description: The CellTiter-Glo™ Luminescent Cell Viability Assay (Promega) is a homogeneous method of determining the number of viable cells in culture based on quantitation of the ATP present, which signals the presence of metabolically active cells.
HCT 116 cells (human colon carcinoma, ATCC-No. CCl-247) were cultivated in RPMI 1640 medium with GlutaMAX™ I (Invitrogen, Cat-No. 61870-010), 2,5% Fetal Calf Serum (FCS, Sigma Cat-No. F4135 (FBS)); 100 Units/ml penicillin/100 μg/ml streptomycin (=Pen/Strep from Invitrogen Cat. No. 15140). For the assay the cells were seeded in 384 well plates, 1000 cells per well, in the same medium. The next day the test compounds were added in various concentrations ranging from 30 μM to 0.0015 μM (10 concentrations, 1:3 diluted). After 5 days the CellTiter-Glo™ assay was done according to the instructions of the manufacturer (CellTiter-Glo™ Luminescent Cell Viability Assay, from Promega). In brief: the cell-plate was equilibrated to room temperature for approximately 30 minutes and than the CellTiter-Glo™ reagent was added. The contents were carefully mixed for 15 minutes to induce cell lysis. After 45 minutes the luminescent signal was measured in Victor 2, (scanning multiwell spectrophotometer, Wallac).
1st. Day: • Medium: RPMI 1640 with GlutaMAX™ I (Invitrogen, Cat-Nr. 61870), 5% FCS (Sigma Cat.-No. F4135), Pen/Strep (Invitrogen, Cat No. 15140). • HCT116 (ATCC-No. CCl-247): 1000 cells in 60 μl per well of 384 well plate (Greiner 781098, μClear-plate white) • After seeding incubate plates 24 h at 37° C., 5% CO2 2nd. Day: Induction (Treatment with Compounds, 10 Concentrations):
In order to achieve a final concentration of 30 μM as highest concentration 3.5 μl of 10 mM compound stock solution were added directly to 163 μl media. Then step e) of the dilution procedure described below, was followed.
In order to achieve the second highest to the lowest concentrations, a serial dilution with dilution steps of 1:3 was followed according to the procedure (a-e) as described here below: • a) for the second highest concentration add 10 μl of 10 mM stock solution of compound to 20 μl dimethylsulfoxide (DMSO) • b) dilute 8×1:3 (always 10 μl to 20 μl DMSO) in this DMSO dilution row (results in 9 wells with concentrations from 3333.3 μM to 0.51 μM) • c) dilute each concentration 1:47.6 (3.5 μl compound dilution to 163 μl media) • e) add 10 μl of every concentration to 60 μl media in the cell plate resulting in final concentration of DMSO: 0.3% in every well and resulting in 10 final concentration of compounds ranging from 30 μM to 0.0015 μM. • Each compound is tested in triplicate. • Incubate 120 h (5 days) at 37° C., 5% CO2
• Add 30 μl CellTiter-Glo™ Reagent (prepared from CellTiter-Glo™ Buffer and CellTiter-Glo™ Substrate (lyophilized) purchased from Promega) per well, • shake 15 minutes at room temperature • incubate further 45 minutes at room temperature without shaking
• Victor 2 scanning multiwell spectrophotometer (Wallac), Luminescence mode (0.5 sec/read, 477 nm) • Determine IC50 using a non-linear curve fit (XLfit software (ID Business Solution Ltd., Guilford, Surrey, UK))

Aurora A kinase = biological target: T1, Aurora A kinase (Homo sapiens, UniProt O14965); assay: IC50 determination for inhibitors of Aurora A (ELISA-type kinase assay, GST-Histone H3 substrate); assay type: biochemical; conditions: mutant Aurora A kinase, 30 μM ATP, 40 minutes, read-out: IC50 Aurora A kinase inhibition
T1 sequence (O14965 1-403 T288D): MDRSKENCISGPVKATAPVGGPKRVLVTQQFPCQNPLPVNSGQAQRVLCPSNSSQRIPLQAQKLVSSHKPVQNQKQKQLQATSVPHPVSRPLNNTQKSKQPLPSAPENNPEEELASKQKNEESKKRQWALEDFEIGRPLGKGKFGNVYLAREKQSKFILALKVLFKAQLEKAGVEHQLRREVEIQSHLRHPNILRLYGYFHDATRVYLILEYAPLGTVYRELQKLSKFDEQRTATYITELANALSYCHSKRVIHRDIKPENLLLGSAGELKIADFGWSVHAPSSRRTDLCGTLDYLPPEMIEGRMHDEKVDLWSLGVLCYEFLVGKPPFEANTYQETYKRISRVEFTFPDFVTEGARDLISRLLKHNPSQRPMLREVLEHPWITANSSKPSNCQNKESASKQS
Description: Aurora A is a serine threonine kinase involved in spindle assembly and chromosome segregation.
The assay is a typically ELISA-type assay where substrate (GST-Histone H3) is coupled to the assay-plate and is phosphorylated by the kinase. Phosphorylation is detected by a mouse anti-Phosphopeptid mAb and an HRP-labeled anti-mouse pAb. The assay is validated for IC50-determination.
Kinase activities were measured by Enzyme-Linked Immunosorbent Assay (ELISA): Maxisorp 384-well plates (Nunc) were coated with recombinant fusion protein comprising residues 1-15 of HistoneH3 fused to the N-terminus of Glutathione-S-Transferase. Plates were then blocked with a solution of 1 mg/mL I-block (Tropix cat# T2015—highly purified form of casein) in phosphate-buffered saline. Kinase reactions were carried out in the wells of the ELISA plate by combining an appropriate amount of mutant Aurora A kinase with test compound and 30 μM ATP. The reaction buffer was 10× Kinase Buffer (Cell Signaling cat #9802) supplemented with 1 μg/mL I-block. Reactions were stopped after 40 minutes by addition of 25 mM EDTA. After washing, substrate phosphorylation was detected by addition of anti-phospho-Histone H3 (Ser 10) 6G3 mAb (Cell Signaling cat #9706) and sheep anti-mouse pAb-HRP (Amersham cat# NA931V), followed by colorimetric development with TMB (3,3′,5,5′-tetramethylbenzidine from Kirkegaard & Perry Laboratories). After readout of the absorbance, IC50 values were calculated using a non-linear curve fit (XLfit software (ID Business Solution Ltd., Guilford, Surrey, UK)).

| IC50 (HCT 116 cells) | IC50 (Aurora A kinase) | SMILES |
| --- | --- | --- |
| 25 to 1500 nM | 2 nM | CCN1C(=O)C(C)(C)c2cc3nc(-c4n[nH]c5ccc(-c6nc[nH]n6)cc45)[nH]c3cc21 [Example 1, 5-Ethyl-7,7-dimethyl-2-[5-(1H-[1,2,4]triazol-3-yl)-1H-indazol-3-yl]-5,7-dihydro-3H-imidazo[4,5-f]indol-6-one] |
| 25 to 1500 nM | 22 nM | CCN1C(=O)C(C)(C)c2cc3nc(-c4n[nH]c5cc(-c6ccsc6)ccc45)[nH]c3cc21 [Example 4, 5-Ethyl-7,7-dimethyl-2-(6-thiophen-3-yl-1H-indazol-3-yl)-5,7-dihydro-3H-imidazo[4,5-f]indol-6-one] |
| 25 to 1500 nM | 35 nM | CCN1C(=O)C(C)(C)c2cc3nc(-c4n[nH]c5cc(/C=C/c6ccc(F)cc6)ccc45)[nH]c3cc21 [Example 6, 5-Ethyl-2-{6-[(E)-2-(4-fluoro-phenyl)-vinyl]-1H-indazol-3-yl}-7,7-dimethyl-5,7-dihydro-3H-imidazo[4,5-f]indol-6-one] |
| – | 19 nM | CCN1C(=O)C(C)(C)c2cc3nc(-c4n[nH]c5cc(/C=C/c6ccc(C(F)(F)F)cc6)ccc45)[nH]c3cc21 [Example 11, 5-Ethyl-7,7-dimethyl-2-{6-[(E)-2-(4-trifluoromethyl-phenyl)-vinyl]-1H-indazol-3-yl}-5,7-dihydro-3H-imidazo[4,5-f]indol-6-one] |
| 25 to 1500 nM | 58 nM | CCN1C(=O)C(C)(C)c2cc3nc(-c4n[nH]c5cc(/C=C/C6CCCCC6)ccc45)[nH]c3cc21 [Example 19, 2-[6-((E)-2-Cyclohexyl-vinyl)-1H-indazol-3-yl]-5-ethyl-7,7-dimethyl-5,7-dihydro-3H-imidazo[4,5-f]indol-6-one] |
| 25 to 1500 nM | 6 nM | CCN1C(=O)C(C)(C)c2cc3nc(-c4n[nH]c5ccc(-c6cccc(N(C)C)c6)cc45)[nH]c3cc21 [Example 29, 2-[5-(3-Dimethylamino-phenyl)-1H-indazol-3-yl]-5-ethyl-7,7-dimethyl-5,7-dihydro-3H-imidazo[4,5-f]indol-6-one] |
| 25 to 1500 nM | 9 nM | CCN1C(=O)C(C)(C)c2cc3nc(-c4n[nH]c5cc(C#Cc6ccccc6)ccc45)[nH]c3cc21 [Example 38, 5-Ethyl-7,7-dimethyl-2-(6-phenylethynyl-1H-indazol-3-yl)-5,7-dihydro-3H-imidazo[4,5-f]indol-6-one] |
